Like-named read-outs stand apart in the source and are kept apart here.
Legend:
Solubility in pure water = assay type: physicochemical; settings: pure water, 18 °C, water, thermodynamic from solid
Protocol: A measured amount of Dex-Vi was partially dissolved in pure water. The solution was then centrifuged. The supernatant was decanted, and the volume was measured. The remainder of the solid was dried in a vacuum oven and weighed. Finally, the weight of the remaining Dex-Vi was subtracted from the initial added mass to obtain the amount dissolved in the supernatant, permitting calculation of the maximum soluble concentration.

Viscosity (rheometer) = assay type: physicochemical; settings: for viscosity: pure water
Protocol: Viscosity measurements were carried out using an Ares G2 rheometer (TA Instruments) with an advanced Peltier system at 25° C.

[1] = Membrane permeability in H-cell; assay type: physicochemical; settings: Selemion DSV membrane
Protocol: 0.33 M Dex-Vi in pure water was separated by an anion-exchange membrane (DSV) from 1 M NaCl in an H-cell. […] The cell was agitated on a shaker to partially simulate flow dynamics. Aliquots of the receiving end (1 M NaCl side) were taken every few days, and the removed volume was replaced with 1 M NaCl. The concentration of Dex-Vi in the aliquot was determined by measuring the absorbance at 285 nm using a UV-Vis spectrophotometer. The concentration as a function of time data was then used to calculate the permeability constant of Dex-Vi. (Kwabi, D. G. et al., Joule 2018, 2, 1894-1906)
Permeability was calculated using Eqn. 4 which follows Fick's Law, where P is the permeability in cm^2·s^−1, A is the membrane area in cm^2, t is elapsed time in seconds, Ct is the concentration (mol·cm^−3) of Dex-Vi on the receiving side at time t, C0 is the initial concentration of Dex-Vi on the donating side, Vo is the volume of one side of the H-cell, and l is the membrane thickness in cm.

Degradation in 1M KOH = assay type: physicochemical
[2] = Symmetric, volumetrically-unbalanced flow cell cycling; settings: sixteen days (150 cycles) continuous charge-discharge, N2 glovebox, first redox process
Protocol: The RFB measurements were carried out in a custom-made zero-gap device previously reported by Li et al. (Li, W. et al., Chem 2018, 4 (11), 2644-2657; and Li, W. et al., Adv. Energy Mater. 2019, 9 (31), 1900918.) Both symmetric flow cell and RFB full cell measurements were conducted using a Bio-Logic SP-200 potentiostat at room temperature (˜20° C.). In symmetric cells, 0.1 M of active species in 1 M NaCl (pre-charged to 50% SOC of the first electron reduction using FcNCl as the counter cathode in bulk electrolysis) was utilized on both sides with the capacity limiting side (CLS) consisting of 5 mL of solution and the non-capacity limiting side (NCLS) consisting of 10 mL of solution separated by a Selemion AMV anion-exchange membrane (Asahi Glass Co.). The neat Dex-Vi full RFB cell cycling was performed using the product from the Dex-Vi synthesis directly without any purification. The neat product was diluted to roughly 0.1 M to pair with a 0.2 M BTMAP-Fc counter catholyte in excess capacity separated by an AMV membrane. Both the anolyte and catholyte were 5 mL in total volume with 0.5 M NaCl supporting electrolyte. […]

[3] = Full RFB cell cycling, anolyte-limiting, BTMAP-Fc catholyte; settings: for capacity decay in RFB cycling: anolyte-limiting
Protocol: The RFB measurements were carried out in a custom-made zero-gap device previously reported by Li et al. (Li, W. et al., Chem 2018, 4 (11), 2644-2657; and Li, W. et al., Adv. Energy Mater. 2019, 9 (31), 1900918.) Both symmetric flow cell and RFB full cell measurements were conducted using a Bio-Logic SP-200 potentiostat at room temperature (˜20° C.). In symmetric cells, 0.1 M of active species in 1 M NaCl (pre-charged to 50% SOC of the first electron reduction using FcNCl as the counter cathode in bulk electrolysis) was utilized on both sides with the capacity limiting side (CLS) consisting of 5 mL of solution and the non-capacity limiting side (NCLS) consisting of 10 mL of solution separated by a Selemion AMV anion-exchange membrane (Asahi Glass Co.). The neat Dex-Vi full RFB cell cycling was performed using the product from the Dex-Vi synthesis directly without any purification. The neat product was diluted to roughly 0.1 M to pair with a 0.2 M BTMAP-Fc counter catholyte in excess capacity separated by an AMV membrane. Both the anolyte and catholyte were 5 mL in total volume with 0.5 M NaCl supporting electrolyte. The first electron high concentration Dex-Vi RFB full cell cycling was performed using 5 mL of 1.5 M Dex-Vi as the anolyte and 10 mL 0.75 M BTMAP-Fc as the catholyte, both of which were prepared in pure water without any supporting salt, with a DSV anion-exchange membrane. The second-electron high concentration full cell cycling was performed using 5 mL of 1.5 M Dex-Vi in water as the anolyte, 20 mL of 0.75 M BTMAP-Fc in water as the catholyte, and a DSV anion-exchange membrane. Rate performance was investigated using 0.1 M Dex-Vi anolyte and 0.2 M BTMAP-Fc catholyte both in 1 M NaCl with DSV anion-exchange membrane.
Graphite plates (⅛-inch thickness, MWI Inc.) with a 20×20×1.2 mm pocket were used as current collectors for RFB devices. 4 cm^2 graphite felt electrodes (GFD 3 EA, […]®) were pre-treated at 400° C. in air for 6 hr before being used on both sides of the cell. 25×25 mm Selemion AMV or DSV was presoaked in 1.0 M NaCl for more than 24 hr before it was used as an anion-exchange membrane. The cell was assembled with four pieces of die cut PTFE sheets (0.04-inch thickness) as gaskets and tightened with eight #10-24 bolts. The electrolytes were pumped through the flow channels by a peristaltic pump (Cole-Parmer Masterflex L/S) via PharMed BPT tubing. The electrolyte flow rate was controlled at 20 mL·min^−1 for all RFB measurements. 10 mL custom made glass vials with two 4 mm OD electrolyte inlet/out arms were used as electrolyte reservoirs. […]

[4] = Degradation kinetics in sodium hydroxide; settings: one-and-one-half order overall
Text: The chemical stability of the first redox processes of Dex-Vi was investigated using a symmetric, volumetrically-unbalanced flow cell inside an N2 glovebox.

With `C[N+](C)(C)CC(O)C[n+]1ccc(-c2cc[n+](CC(O)C[N+](C)(C)C)cc2)cc1` (stereo not drawn) [Dex-Vi, bis(3-trimethylammonio-2-hydroxy)propyl viologen tetrachloride] as the compound, how does the solubility (Solubility in pure water; Example 2, read-out: Water Solubility) read?
Its solubility is 1800 mM.

And the solubility (Solubility in pure water; room temperature (~18° C.), read-out: maximum solubility)?
Its solubility is roughly 2000 mM.

What about the “Viscosity at 1M, 25° C.” value (Viscosity (rheometer); 1M, 25° C.) of the same compound?
The value was 14.2 cP.

And the viscosity (Viscosity (rheometer); 0.25 M)?
The viscosity was 1.1 cP.

What about the viscosity (Viscosity (rheometer); 0.50 M) of the same compound?
Its viscosity is 1.8 cP.

What about the viscosity (Viscosity (rheometer); 1.0 M) of the same compound?
Its viscosity is 4.7 cP.

What about the viscosity (Viscosity (rheometer); 1.5 M) of the same compound?
The viscosity was 50 cP.

What about the permeance [1] of the same compound?
The permeance was 2.3×10^−11 cm^2·s^−1.

And the “Degradation in 1M KOH, k” value (Degradation in 1M KOH)?
The value was 3.22e-06 s⁻¹.

What about the “decay in symmetric flow cell” value [2] of the same compound?
Its value is “no decay”.

And the “capacity decay in RFB cycling” value ([3]; 0.1 M, two weeks (1,200+ cycles))?
The value was “no observable decay”.

What about the “capacity decay in RFB cycling” value ([3]; 1.5 M, one month continual cycling) of the same compound?
Its value is “no discernable decay”.

And the “Anolyte-limiting RFB Stability” value ([3]; Table 1)?
The value was roughly 0% decay/year.

And the “RFB Viologen Molarity (1e^−)” value ([3]; Table 1)?
Its value is 1.5.

And the “degradation rate constant k” value [4]?
Its value is 2.3×10^−6 s^−1·M^−1/2.
